Experimental data reported in ChEMBL document CHEMBL4340504, “Caged-xanthone from Cratoxylum formosum ssp. pruniflorum inhibits malignant cancer phenotypes in multidrug-resistant human A549 lung cancer cells through down-regulation of NF-κB” (Bioorg Med Chem, 2019).
Calls of active or inactive are those of the source.

Tests used:
[1] = (§1) Cytotoxicity against human A549RT-eto cells assessed as reduction in cell viability after 72 hrs by MTT assay; type: functional, cell-based
Homo sapiens [2] = species on record: Homo sapiens; assay: as §1; type: functional, cell-based
A549 = assay: Cytotoxicity against human A549 cells assessed as reduction in cell viability after 72 hrs by MTT assay; type: functional, cell-based; conditions: A549, 72 h
Homo sapiens [3] = species on record: Homo sapiens; assay: Down regulation of NFkappaB expression in human A549RT-eto cells at 1 to 5 ug/ml measured after 24 hrs by immunoblotting analysis; type: functional, cell-based
Homo sapiens [4] = species on record: Homo sapiens; assay: Inhibition of NFkappaB in human A549RT-eto cells assessed as down regulation of P-gp expression at 1 to 5 ug/ml measured after 24 hrs by immunoblotting analysis; type: cell-based
Homo sapiens [5] = species on record: Homo sapiens; assay: Induction of apoptosis in human A549RT-eto cells assessed as reduction in […] 8 level at 1 to 5 ug/ml measured after 24 hrs by immunoblotting analysis; type: functional, cell-based
Homo sapiens [6] = species on record: Homo sapiens; assay: Induction of apoptosis in human A549RT-eto cells assessed as reduction in […] 9 level at 1 to 5 ug/ml measured after 24 hrs by immunoblotting analysis; type: functional, cell-based
Homo sapiens [7] = species on record: Homo sapiens; assay: Induction of apoptosis in human A549RT-eto cells assessed as increase in PARP level at 1 to 5 ug/ml measured after 24 hrs by immunoblotting analysis; type: functional, cell-based
Homo sapiens [8] = species on record: Homo sapiens; assay: Antimigratory activity in human A549RT-eto cells assessed as decrease in cell migration at 1.5 ug/ml for 24 hrs by phase contrast microscopy-based scratch would healing assay; type: functional
[9] = Antiinvasive activity in human A549RT-eto cells assessed as reduction in cell invasion at 1.5 ug/ml measured after 24 hrs using hematoxylin-eosin by microscopy-based transwell assay relative to control; type: functional
Homo sapiens [10] = species on record: Homo sapiens; assay: Inhibition of NFkappaB in human A549RT-eto cells assessed as reduction in epithelial-mesenchymal transition by measuring up regulation of E-Cadherin expression at 1 to 1.5 ug/ml after 24 hrs by immunoblotting analysis; type: cell-based
Homo sapiens [11] = species on record: Homo sapiens; assay: Inhibition of NFkappaB in human A549RT-eto cells assessed as reduction in epithelial-mesenchymal transition by measuring down regulation of N-Cadherin expression at 1 to 1.5 ug/ml after 24 hrs by immunoblotting analysis; type: cell-based
Homo sapiens [12] = species on record: Homo sapiens; assay: Inhibition of NFkappaB in human A549RT-eto cells assessed as reduction in epithelial-mesenchymal transition by measuring down regulation of vimentin expression at 1 to 1.5 ug/ml after 24 hrs by immunoblotting analysis; type: cell-based
Homo sapiens [13] = species on record: Homo sapiens; assay: Induction of apoptosis in human A549RT-eto cells transfected with NF-kappaB siRNA assessed as increase in pro-caspase 9 expression at 1.5 ug/ml by immunoblotting analysis; type: functional, cell-based
Homo sapiens [14] = species on record: Homo sapiens; assay: Inhibition of NFkappaB in human A549RT-eto cells assessed as down regulation of Oct4 expression by immunoblotting analysis; type: cell-based
Homo sapiens [15] = species on record: Homo sapiens; assay: Inhibition of NFkappaB in human A549RT-eto cells assessed as suppression of sphere formation by measuring decrease in spheroid size at 1.5 ug/mL treated for 24 hrs followed by cell culture for 6 days and measured over 48 hrs by optical microscopic method; type: cell-based
Homo sapiens [16] = species on record: Homo sapiens; assay: Induction of apoptosis in human A549RT-eto cells transfected with NF-kappaB siRNA assessed as increase in pro-caspase 8 expression at 1.5 ug/ml by immunoblotting analysis; type: functional, cell-based
Homo sapiens [17] = species on record: Homo sapiens; assay: Cytotoxicity against human A549RT-eto cells assessed as cell death after 24 hrs by MTT assay; type: functional, cell-based
Homo sapiens [18] = species on record: Homo sapiens; assay: Inhibition of NFkappaB in human A549RT-eto cells assessed as suppression of sphere formation by measuring decrease in number of spheroid formation at 1.5 ug/mL treated for 24 hrs followed by cell culture for 6 days and measured over 48 hrs by optical microscopic method; type: cell-based
Homo sapiens [19] = species on record: Homo sapiens; assay: Inhibition of NFkappaB in human A549RT-eto cells assessed as down regulation of Bmi1 expression by immunoblotting analysis; type: cell-based
Homo sapiens [20] = species on record: Homo sapiens; assay: Inhibition of NFkappaB in human A549RT-eto cells assessed as downregulation of Nanog expression by immunoblotting analysis; type: cell-based
Homo sapiens [21] = species on record: Homo sapiens; assay: Inhibition of NFkappaB in human A549RT-eto cells assessed as down regulation of S0x2 expression by immunoblotting analysis; type: cell-based
Homo sapiens [22] = species on record: Homo sapiens; assay: Induction of apoptosis in human A549RT-eto cells transfected with NF-kappaB siRNA assessed as increase in cleaved PARP expression at 1.5 ug/ml by immunoblotting analysis; type: functional, cell-based
Homo sapiens [23] = species on record: Homo sapiens; assay: Down regulation of NFkappaB expression in human A549RT-eto cells transfected with NF-kappaB siRNA at 1.5 ug/ml by immunoblotting analysis; type: functional, cell-based
Homo sapiens [24] = species on record: Homo sapiens; assay: Down regulation of P-gp expression in human A549RT-eto cells transfected with NF-kappaB siRNA at 1.5 ug/ml by immunoblotting analysis; type: functional, cell-based

CO[C@@]12C=C3C(=O)c4c(O)cccc4O[C@@]34[C@@H](C1)C(C)(C)O[C@@]4(CC=C(C)C)C2=O
active: Activity (Homo sapiens [2]) Dose-dependent effect | Activity (Homo sapiens [3]) | inhibition (Homo sapiens [4]) | Activity (Homo sapiens [5]) | Activity (Homo sapiens [6]) | Activity (Homo sapiens [7]) | Activity (Homo sapiens [8]) | inhibition (Homo sapiens [10]) | inhibition (Homo sapiens [11]) | inhibition (Homo sapiens [12]) | Activity (Homo sapiens [13]) | inhibition (Homo sapiens [14]) Dose-dependent effect | inhibition (Homo sapiens [15]) | Activity (Homo sapiens [16]) | Activity (Homo sapiens [17]) | inhibition (Homo sapiens [18]) | inhibition (Homo sapiens [19]) Dose-dependent effect | inhibition (Homo sapiens [20]) Dose-dependent effect | inhibition (Homo sapiens [21]) Dose-dependent effect | Activity (Homo sapiens [22]) | Activity (Homo sapiens [23]) | Activity (Homo sapiens [24])
4.96 µg/mL: IC50 [1]
2.51 µg/mL: IC50 (A549)
2: fold change (FC) [9]
